Measurements published in patent publication US20040072744A1, “Synthetic peptide as treatment for down's syndrome and schizophrenia” (priority 2002, published 2004).
“Also recorded” adds a separate entry of the source.

B1: NGF (protein)
chain: EDHPVHNLGEHSVCDSVSAWVTKTTATDIKGNTVTVMENVNLDNKVYKEYFFETKCKNPNPEPSGCRGIDSSHWNSYCTETDTFIKALTMEGNQASWRFIRIDTACVCVITKKTGN

Assays:
PC12 cells = assay: Neurite production on PC12 cells; assay type: cell-based, rat
Procedure: (§1) Adesh-10 (SEQ. ID. NO.: 2) is considered exemplary of the Adesh family of peptides and has been studied and tested to illustrate the invention. Venom derived NGF produced neurites on PC12 cells at 5 ng/ml while the concentration of Adesh-10 required was 1 μg/ml. NGF is toxic to PC 12 cells at the concentration of 5 μg/ml, while Adesh-10 is not toxic up to 100 μg/ml.

PC 12 cells = assay: Toxicity to PC12 cells; assay type: cell-based, rat
Procedure: as §1

simian rotavirus (SA11) = assay: Kinetics of replication of SA11 virus in MA104 cells in serum free medium with supplement; assay type: cell-based; details: 1 μg/ml trypsin; for SA11 virus titer Day 2: 1 μg/ml NGF or 5 μg/ml Adesh-10, day 2; for SA11 virus titer Day 4: 1 μg/ml NGF or 5 μg/ml Adesh-10, day 4; for SA11 virus titer Day 6: 1 μg/ml NGF or 5 μg/ml Adesh-10, day 6; for SA11 virus titer Day 8: 1 μg/ml NGF or 5 μg/ml Adesh-10, day 8
[1] = test system: influenza virus A/TAI strain; assay: Kinetics of replication of influenza A/TAI virus in MDCK cells in serum free medium with supplement; assay type: cell-based; details: 1 μg/ml trypsin; for A/TA1 virus titer Day 2: 1 μg/ml NGF or 5 μg/ml Adesh-10, day 2; for A/TA1 virus titer Day 4: 1 μg/ml NGF or 5 μg/ml Adesh-10, day 4; for A/TA1 virus titer Day 6: 1 μg/ml NGF or 5 μg/ml Adesh-10, day 6
NGF = NGF content in organ homogenates of orally treated mice by ELISA using anti-NGF; assay type: in vivo, Balb/c male mice; details: oral 100 μg/mouse for 7 days
Procedure: One year old Balb/c male mice (considered to be retired and non-productive) were given Adesh-10 orally for seven consecutive days, and the control set of mice received PBS. Two days after the completion of the treatment, the mice were sacrificed for organs. Organ homogenates were assayed for NGF content by simple enzyme-linked immunosorbent assay (ELISA), using anti-NGF.
Preparation of organ homogenates: Mice were used in compliance with U.S. Public Health Service policy on humane care and use of animals. One-year-old Balb/c male mice were divided into two groups each consisting of five. Mice in group I were given orally 100 μg/mouse in 50 μl volume of Adesh-10, the synthetic analog of NGF for seven consecutive days. The group II mice were given similar volume of PBS. Two days after the completion of the treatment with Adesh-10 or PBS the mice were sacrificed for organs. Organs from five of each group of mice were collected and one type of organ from five were pooled. The pool of the organs was homogenized in PBS by manual homogenizer. The homogenates were centrifuged and the supernatants for each pool organ were separated. Protein concentration for each supernatant was measured on spectrophotometer using a protein kit from Bio-Rad (USA catalogue 500-0006). The protein concentrations of the supernatants were adjusted to 100 μg/ml with PBS, as stocks for further testing.
Enzyme-linked immunosorbent assay (ELISA): ELISA tests were carried out in 96 well microtiter plates. The reagents for ELISA were purchased from Sigma-Aldrich Co. The stocks from mouse organs were diluted with carbonate-bicarbonate buffer of pH 9.4 to 10 μg/ml as coating antigen for ELISA. The wells of the plate were coated with antigen, 100 μl/well. The plate was left at room temperature (RT) overnight, after which it was emptied and washed three times (3×) with PBS. The wells were blocked with 250 μl/well of 3% fish skin gelatin. After 30 min. the plate was emptied and washed 3× with PBS. Anti-NGF made in rabbit was diluted from 1:300 in gelatin. Three wells received 100 μl of each dilution of anti-serum. Two-fold diluted anti-sera were used from 1:300 in triplicate. The antigen controls without antibody were incorporated. The plate was incubated at 37° C. in a humid incubator for 1 hr after which the plate was washed 3× with PBS. The horseradish peroxidase conjugated with rabbit IgG 100 μl/well were reacted, for 30 min. Finally, after washing, the wells of the plate were reacted with O-phenylenediamine-HCl (OPD) for color development. The plate was read after 30 min. and the OD was recorded at […]. The average of triplicate readings was expressed as ELISA titer/100 μl.
One year old Balb/c male mice were used for this research. Ten mice were used consisting of two groups five of each. Mice in group I were given orally 100 μg/mouse in 50 μl volume of Adesh-10, synthetic analog of NGF for seven consecutive days. The group II mice were given similar volume of PBS. Two days after the completion of the treatment the mice were sacrificed for organs. Organ homogenates were assayed for NGF by ELISA.

Down syndrome children = assay: Treatment of Down syndrome children; assay type: in vivo, human; details: 100 μg/day, orally under the tongue or sub cutaneous injection
Procedure: In Humans: Several Down syndrome children were treated with Adesh-10. Adesh-10 was administered in the amount of 100 μg/day, either orally under the tongue, or by sub cutaneous injection.

Alzheimer's patients = details: oral administration, human clinical trials; cited from earlier work

Molecule | concentration toxic to PC 12 cells (PC 12 cells) | SA11 virus titer Day 2 (simian rotavirus (SA11)) | SA11 virus titer Day 4 (simian rotavirus (SA11)) | SA11 virus titer Day 6 (simian rotavirus (SA11)) | SA11 virus titer Day 8 (simian rotavirus (SA11)) | A/TA1 virus titer Day 2 [1] | A/TA1 virus titer Day 4 [1] | A/TA1 virus titer Day 6 [1] | further results
N L G E H P V C D S (NLGEHPVCDS; CORRESPONDS TO POSITIONS 1-10 OF SEQ. ID. NO. 1) [Adesh-10] | > 100 µg/mL | 3 Log TCID50/ml | 6 Log TCID50/ml | 6.5 Log TCID50/ml | 8 Log TCID50/ml | 4 Log TCID5/ml | 5.1 Log TCID5/ml | 6.2 Log TCID5/ml | concentration required to produce neurites on PC12 cells (PC12 cells): 1 µg/mL; NGF concentration in organ, Treated: Bone (NGF; Bone, one year old male mice, organs 2 days after treatment): 900 ELISA titer/100 μl; NGF concentration in organ, Treated: Brain (NGF; Brain, one year old male mice, organs 2 days after treatment): 2400 ELISA titer/100 μl; NGF concentration in organ, Treated: Heart (NGF; Heart, one year old male mice, organs 2 days after treatment): 2400 ELISA titer/100 μl; NGF concentration in organ, Treated: Kidney (NGF; Kidney, one year old male mice, organs 2 days after treatment): 1800 ELISA titer/100 μl; NGF concentration in organ, Treated: Liver (NGF; Liver, one year old male mice, organs 2 days after treatment): 2400 ELISA titer/100 μl; NGF concentration in organ, Treated: Lung (NGF; Lung, one year old male mice, organs 2 days after treatment): 1800 ELISA titer/100 μl; NGF concentration in organ, Treated: Muscle (NGF; Muscle, one year old male mice, organs 2 days after treatment): 2400 ELISA titer/100 μl; NGF concentration in organ, Treated: Pancreas (NGF; Pancreas, one year old male mice, organs 2 days after treatment): 1200 ELISA titer/100 μl; NGF concentration in organ, Treated: Salivary (NGF; Salivary, one year old male mice, organs 2 days after treatment): 1200 ELISA titer/100 μl; NGF concentration in organ, Treated: Skin (NGF; Skin, one year old male mice, organs 2 days after treatment): 1200 ELISA titer/100 μl; NGF concentration in organ, Treated: Spleen (NGF; Spleen, one year old male mice, organs 2 days after treatment): 1200 ELISA titer/100 μl; NGF concentration in organ, Treated: Testis (NGF; Testis, one year old male mice, organs 2 days after treatment): 1800 ELISA titer/100 μl; increase in NGF level versus control (NGF; brain, muscle and testis): twofold increase; clinical effect in Down's syndrome children (Down syndrome children): good results; also recorded: improved physical, vocal, learning and memory abilities
Trypsin [reference compound] | – | 6.5 Log TCID50/ml | 7.2 Log TCID50/ml | 8 Log TCID50/ml | 8.5 Log TCID50/ml | 5.6 Log TCID5/ml | 6 Log TCID5/ml | 6.5 Log TCID5/ml | –
O=C(CCn1cnc2c(=O)[nH]cnc21)Nc1ccc(C(=O)[O-])cc1.[K+] [AIT-082] | – | – | – | – | – | – | – | – | efficacy in Alzheimer's patients versus placebo (Alzheimer's patients): no difference between Alzheimer's patients treated with AIT-082 and placebo
B1 | 5 µg/mL | 4 Log TCID50/ml | 7 Log TCID50/ml | 7.5 Log TCID50/ml | 8.2 Log TCID50/ml | 5 Log TCID5/ml | 5.5 Log TCID5/ml | 6.1 Log TCID5/ml | concentration producing neurites on PC12 cells (PC12 cells): 5 ng/mL
